For series [1] the following is noted: cited from earlier work.
A short description of series [2]: Water-solubility of human C-peptide. In kind it is physicochemical. The conditions noted are these: observed when preparing formulations; phase-separation methods gave high losses of active substance.

Take `CC(C)C[C@H](NC(=O)[C@H](C)NC(=O)[C@H](CC(C)C)NC(=O)[C@@H]1CCCN1C(=O)[C@H](CCC(N)=O)NC(=O)[C@H](CC(C)C)NC(=O)[C@H](CO)NC(=O)CNC(=O)[C@H](C)NC(=O)CNC(=O)[C@@H]1CCCN1C(=O)CNC(=O)CNC(=O)CNC(=O)[C@H](CC(C)C)NC(=O)[C@H](CCC(=O)O)NC(=O)[C@@H](NC(=O)[C@H](CCC(N)=O)NC(=O)CNC(=O)[C@@H](NC(=O)[C@H](CCC(N)=O)NC(=O)[C@H](CC(C)C)NC(=O)[C@H](CC(=O)O)NC(=O)[C@H](CCC(=O)O)NC(=O)[C@H](C)NC(=O)[C@@H](N)CCC(=O)O)C(C)C)C(C)C)C(=O)N[C@@H](CCC(=O)O)C(=O)NCC(=O)N[C@@H](CO)C(=O)N[C@@H](CC(C)C)C(=O)N[C@@H](CCC(N)=O)C(=O)O` [C-peptide]: the “half-life of plasma in humans” value in series [1] is listed as “about 40 minutes”. Moreover, in series [2], the water-solubility result was “strong water-solubility”.

The values above are taken from US20040053817A1, “Delayed-release pharmaceutical formulations” (priority 2000, published 2004).
